Data as given in US7531543B2, “Phenylpiperazine cycloalkanol derivatives and methods of their use” (Wyeth, priority 2003, dated 2009).
Where a name gives a salt, the structure may show the parent alone.

Biological target: T1, human hNET (Homo sapiens, UniProt P23975)
T1 construct: expressed in transfected cells; host or cells: MDCK-Net6 (MDCK cells stably transfected with hNET)
Assay: Norepinephrine (NE) uptake assay in MDCK-Net6 cells
Type: cell-based
Conditions: [3H]NE uptake, MDCK-Net6 cells stably transfected with hNET; for inhibition at 1 µM: 1 μM test compound; for EC50: test range 1 to 10,000 nM
Protocol: MDCK-Net6 cells, stably transfected with human hNET (Pacholczyk, T., R. D. Blakely, and S. G. Amara, Nature, 1991, 350(6316): p. 350-4) were cultured in growth medium containing high glucose DMEM (Gibco, Cat. No. 11995), 10% FBS (dialyzed, heat-inactivated, US Bio-Technologies, Lot FBD1129HI) and 500 µg/ml G418 (Gibco, Cat. No. 10131). Cells were plated at 300,000/T75 flask and cells were split twice weekly. The JAR cell line (human placental choriocarcinoma) was purchased from ATCC (Cat. No. HTB-144). The cells were cultured in growth medium containing RPMI 1640 (Gibco, Cat. No. 72400), 10% FBS (Irvine, Cat. No. 3000), 1% sodium pyruvate (Gibco, Cat. No. 1136) and 0.25% glucose. Cells were plated at 250,000 cells/T75 flask and split twice weekly. For all assays, cells were plated in Wallac 96-well sterile plates (PerkinElmer, Cat. No. 3983498).
Norepinephrine (NE) Uptake Assay
On day 1, cells were plated at 3,000 cells/well in growth medium and maintained in a cell incubator (37° C., 5% CO2). On day 2, growth medium was replaced with 200 μl of assay buffer (25 mM HEPES; 120 mM NaCl; 5 mM KCl; 2.5 mM CaCl2; 1.2 mM MgSO4; 2 mg/ml glucose (pH 7.4, 37° C.)) containing 0.2 mg/ml ascorbic acid and 10 μM pargyline. Plates containing cells with 200 μl of assay buffer were equilibrated for 10 minutes at 37° C. prior to addition of compounds. A stock solution of desipramine was prepared in DMSO (10 mM) and delivered to triplicate wells containing cells for a final test concentration of 1 μM. Data from these wells were used to define non-specific NE uptake (minimum NE uptake). Test compounds were prepared in DMSO (10 mM) and diluted in assay buffer according to test range (1 to 10,000 nM). Twenty-five microliters of assay buffer (maximum NE uptake) or test compound were added directly to triplicate wells containing cells in 200 μl of assay buffer. The cells in assay buffer with test compounds were incubated for 20 minutes at 37° C. To initiate the NE uptake, [^3H]NE diluted in assay buffer (120 nM final assay concentration) was delivered in 25 μl aliquots to each well and the plates were incubated for 5 minutes (37° C.). The reaction was terminated by decanting the supernatant from the plate. The plates containing cells were washed twice with 200 μl assay buffer (37° C.) to remove free radioligand. The plates were then inverted, left to dry for 2 minutes, then reinverted and air-dried for an additional 10 minutes. The cells were lysed in 25 μl of 0.25 N NaOH solution (4° C.), placed on a shake table and vigorously shaken for 5 minutes. After cell lysis, 75 μl of scintillation cocktail was added to each well and the plates were sealed with film tape. The plates were returned to the shake table and vigorously shaken for a minimum of 10 minutes to ensure adequate partitioning of organic and aqueous solutions. The plates were counted in a Wallac Microbeta counter (PerkinElmer) to collect the raw cpm data.
For each experiment, a data stream of cpm values collected from the Wallac Microbeta counter was downloaded to a Microsoft Excel statistical application program. Calculations of EC50 values were made using the transformed-both-sides logistic dose response program written by Wyeth Biometrics Department. The statistical program uses mean cpm values from wells representing maximum binding or uptake (assay buffer) and mean cpm values from wells representing minimum binding or uptake ((1 μM desipramine (hNET) or 1 μM paroxetine (hSERT)). Estimation of the EC50 value was completed on a log scale and the line was fit between the maximum and minimum binding or uptake values. All graphic data representation was generated by normalizing each data point to a mean percent based on the maximum and minimum binding or uptake values. The EC50 values reported from multiple experiments were calculated by pooling the raw data from each experiment and analyzing the pooled data as one experiment.

T1 sequence (P23975 whole entry): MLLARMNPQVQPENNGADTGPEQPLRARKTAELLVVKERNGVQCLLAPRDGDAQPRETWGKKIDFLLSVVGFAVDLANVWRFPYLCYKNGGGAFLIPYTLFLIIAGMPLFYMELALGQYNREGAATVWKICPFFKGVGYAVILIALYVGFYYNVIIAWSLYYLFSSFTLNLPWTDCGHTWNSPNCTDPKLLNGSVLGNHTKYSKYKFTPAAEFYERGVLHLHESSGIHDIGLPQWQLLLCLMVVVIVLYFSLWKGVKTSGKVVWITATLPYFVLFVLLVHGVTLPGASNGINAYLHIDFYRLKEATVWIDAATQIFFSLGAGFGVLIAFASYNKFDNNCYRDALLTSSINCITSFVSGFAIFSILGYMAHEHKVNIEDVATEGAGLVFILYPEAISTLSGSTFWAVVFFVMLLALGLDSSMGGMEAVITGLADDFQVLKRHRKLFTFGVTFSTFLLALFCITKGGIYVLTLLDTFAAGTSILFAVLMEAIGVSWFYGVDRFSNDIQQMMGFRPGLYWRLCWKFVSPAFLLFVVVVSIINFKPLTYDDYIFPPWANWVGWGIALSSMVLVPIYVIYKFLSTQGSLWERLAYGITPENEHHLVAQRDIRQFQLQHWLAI

| Compound | inhibition at 1 µM | EC50 |
| --- | --- | --- |
| OC1(C(CN2CCNCC2)c2cccc(Br)c2)CCC1 (stereo not shown) [Example 27, 1-[1-(3-bromophenyl)-2-piperazin-1-ylethyl]cyclobutanol dihydrochloride] | 22% | – |
| OC1(C(CN2CCNCC2)c2ccccc2F)CCC1 (stereo not shown) [Example 28, 1-[1-(2-fluorophenyl)-2-piperazin-1-ylethyl]cyclobutanol dihydrochloride] | 14% | – |
| OC1(C(CN2CCNCC2)c2cccc(Cl)c2)CCCC1 (stereo not shown) [Example 10, 1-[1-(3-chlorophenyl)-2-piperazin-1-ylethyl]cyclopentanol dihydrochloride] | 63% | – |
| CN1CCN(CC(c2ccccc2F)C2(O)CCC2)CC1 (stereo not shown) [Example 31, 1-[1-(2-fluorophenyl)-2-(4-methylpiperazin-1-yl)ethyl]cyclobutanol dihydrochloride] | -6% | – |
| OC1(C(CN2CCNCC2)c2ccc(Cl)c(Cl)c2)CCCCC1 (stereo not shown) [Example 6, 1-[1-(3,4-dichlorophenyl)-2-piperazin-1-ylethyl]cyclohexanol dihydrochloride] | 87% | 210 nM |
| CN1CCN(CC(c2cccc(Cl)c2)C2(O)CCCCCCC2)CC1 (stereo not shown) [Example 39, 1-[1-(3-chlorophenyl)-2-(4-methylpiperazin-1-yl)ethyl]cyclooctanol dihydrochloride] | 42% | – |
| OC1(C(CN2CCNCC2)c2ccc(Br)cc2)CCC1 (stereo not shown) [Example 12, 1-[1-(4-bromophenyl)-2-piperazin-1-ylethyl]cyclobutanol dihydrochloride] | 55% | – |
| C[C@@H]1CN(CC(c2cccc(Cl)c2)C2(O)CCCCC2)C[C@H](C)N1 (stereo partly drawn) [Example 2, 1-{1-(3-chlorophenyl)-2-[(3R,5S)-3,5-dimethylpiperazin-1-yl]ethyl}cyclohexanol dihydrochloride] | 97% | 150 nM |
